Data as given in patent publication US20260315487A1, “IKK-ALPHA INHIBITORS” (Cancer Research Technology Limited, priority 2023, published 2026).

Assays:
Assay type in all cases: biochemical
[1] = target: T1, IKKα (Homo sapiens, UniProt O15111); assay: in-house DELFIA kinase assay, IKKα
T1 sequence (O15111 1-745): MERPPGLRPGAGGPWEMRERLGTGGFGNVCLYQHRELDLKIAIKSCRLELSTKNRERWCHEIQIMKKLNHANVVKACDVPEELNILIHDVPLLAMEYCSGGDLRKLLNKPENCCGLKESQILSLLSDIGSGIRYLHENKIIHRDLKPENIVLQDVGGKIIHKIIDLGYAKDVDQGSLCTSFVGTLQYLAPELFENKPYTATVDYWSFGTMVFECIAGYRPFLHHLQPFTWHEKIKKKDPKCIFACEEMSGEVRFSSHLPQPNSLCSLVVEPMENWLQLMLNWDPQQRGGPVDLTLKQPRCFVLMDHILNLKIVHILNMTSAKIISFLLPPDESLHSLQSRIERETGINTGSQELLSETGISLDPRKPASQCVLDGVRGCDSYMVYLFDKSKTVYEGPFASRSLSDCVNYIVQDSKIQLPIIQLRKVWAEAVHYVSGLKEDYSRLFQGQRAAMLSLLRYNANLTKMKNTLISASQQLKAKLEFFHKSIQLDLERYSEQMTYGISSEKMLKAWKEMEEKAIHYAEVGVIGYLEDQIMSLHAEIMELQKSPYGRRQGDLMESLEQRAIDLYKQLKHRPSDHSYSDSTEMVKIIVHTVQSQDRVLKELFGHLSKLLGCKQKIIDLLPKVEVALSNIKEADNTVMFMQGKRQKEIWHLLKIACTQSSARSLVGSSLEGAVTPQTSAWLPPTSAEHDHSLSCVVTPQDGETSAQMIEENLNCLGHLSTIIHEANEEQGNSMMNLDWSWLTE
Description: (§1) To examine the pyrrolo[2,3 -b]pyridines as an alternative scaffold, we adopted the AIPP core because it had similar dimensions to 1 SU909, with HBD/HBA motifs positioned at the scaffold extremities to interact with both the hinge region and the G-loop wall of IKKα, a rationale we had previously proposed as the basis for imparting selectivity. A preliminary set of AIPP derivatives was designed to explore its utility as an IKK-targeting scaffold, whilst incorporating additional functionality through which to introduce selectivity for the IKKα isoform (2-4 SU1087, SU1266 and SU1253; FIG. 3). This was achieved by initially adopting two different approaches: either appending a hydrophobic moiety to the pyrrolo[2,3 -b]pyridine motif as a fused form to afford the tricyclic derivatives 2 and 3 SU1266 and SU1087, or as a phenyl substituent to introduce flexibility with the central pyrrolo[2,3 -b]pyridine moiety in 4 SU1253 . […] The pyrrolo[2,3 -b]pyridine was bound to the hinge region in the classical HBA/HBD motif with the GK+3 NH and C═O backbone, whilst the aminoindazole projected towards the top of the pocket to interact with the G-loop (FIG. 4A). […] In both isoforms, the 2 -phenyl moiety was oriented out from the hinge towards the exposed solvent area.

[2] = target: T2, IKKβ (Homo sapiens, UniProt O14920); assay: in-house DELFIA kinase assay, IKKβ
T2 sequence (O14920 1-756): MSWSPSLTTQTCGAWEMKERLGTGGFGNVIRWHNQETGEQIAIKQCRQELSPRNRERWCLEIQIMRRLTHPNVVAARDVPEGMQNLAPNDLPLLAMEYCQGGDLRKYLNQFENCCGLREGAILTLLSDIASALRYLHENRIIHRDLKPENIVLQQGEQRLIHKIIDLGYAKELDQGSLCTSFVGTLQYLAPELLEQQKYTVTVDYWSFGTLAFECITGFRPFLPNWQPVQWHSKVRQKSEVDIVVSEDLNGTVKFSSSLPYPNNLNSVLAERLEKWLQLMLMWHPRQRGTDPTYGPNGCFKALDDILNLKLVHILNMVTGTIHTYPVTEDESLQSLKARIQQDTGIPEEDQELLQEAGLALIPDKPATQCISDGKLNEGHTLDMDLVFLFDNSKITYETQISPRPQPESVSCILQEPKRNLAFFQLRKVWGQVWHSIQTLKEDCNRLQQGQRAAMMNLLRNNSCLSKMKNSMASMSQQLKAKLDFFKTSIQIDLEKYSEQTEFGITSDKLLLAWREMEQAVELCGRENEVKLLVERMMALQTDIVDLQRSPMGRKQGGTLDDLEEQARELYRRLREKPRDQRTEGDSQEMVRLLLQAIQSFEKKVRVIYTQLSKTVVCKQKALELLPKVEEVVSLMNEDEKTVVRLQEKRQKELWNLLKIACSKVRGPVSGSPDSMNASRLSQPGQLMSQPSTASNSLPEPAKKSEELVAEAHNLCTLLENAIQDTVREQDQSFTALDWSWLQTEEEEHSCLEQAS
Description: To examine the pyrrolo[2,3 -b]pyridines as an alternative scaffold, we adopted the AIPP core because it had similar dimensions to 1 SU909, with HBD/HBA motifs positioned at the scaffold extremities to interact with both the hinge region and the G-loop wall of IKKα, a rationale we had previously proposed as the basis for imparting selectivity. A preliminary set of AIPP derivatives was designed to explore its utility as an IKK-targeting scaffold, whilst incorporating additional functionality through which to introduce selectivity for the IKKα isoform (2-4 SU1087, SU1266 and SU1253; FIG. 3). This was achieved by initially adopting two different approaches: either appending a hydrophobic moiety to the pyrrolo[2,3 -b]pyridine motif as a fused form to afford the tricyclic derivatives 2 and 3 SU1266 and SU1087, or as a phenyl substituent to introduce flexibility with the central pyrrolo[2,3 -b]pyridine moiety in 4 SU1253 .

[3] = test system: IKKα over IKKβ; assay: selectivity for IKKα over IKKβ from the kinase assay
Description: as §1
To shift the selectivity profile towards IKKα, we selected 4 SU1253 for structural optimization based on the notion that sigma-bond rotation between the phenyl ring and the pyrrolo[2,3 -b]pyridine would inbuild the flexibility required to engage with the three dimensional array of residues nearby to exploit differences between the two isoforms. Furthermore, this would enable the inclusion of moieties that could also project into solvent and address solubility considerations. Small groups (NH2, OH, OMe, OEt and F) were initially introduced into the phenyl ring to evaluate their impact on the selectivity profile against both IKKs (5 a-g SU1354 -SU1373, Table 2 ). Our goal was to achieve a 1:50 selectivity ratio of IKKα to IKKβ, with a minimum IKKβ inhibitory Ki of 500 nM.

CC(C)COc1cccc(-c2cc3c(-c4ccc5[nH]nc(N)c5c4)ccnc3[nH]2)c1 [5o SU1367, 5-(2-(3 -Isobutoxyphenyl)-1 H-pyrrolo[2,3-b]pyridin-4-yl)-1 H-indazol-3-amine]
Ki [1]: 19 nM
IKKβ inhibition, in words [2]: lowest activity against IKKβ
Ki [2]: 458 nM
selectivity for IKKα over IKKβ, in words [3]: tended to improve selectivity

Nc1n[nH]c2ccc(-c3ccnc4[nH]c(-c5cccc(CNC6CCCC6)c5)cc34)cc12 [5n SU1550, 5-(2-(3-((cyclopentylamino)methyl)phenyl)-1 H-pyrrolo[2,3-b]pyridin-4-yl)-1 H-indazol-3-amine]
Ki [1]: 10 nM
Ki [2]: 191 nM
selectivity for IKKα over IKKβ, in words [3]: tended to improve selectivity

COCCNc1cc(OCc2ccccc2)cc(-c2cc3c(-c4ccc5[nH]nc(N)c5c4)ccnc3[nH]2)c1 [6c SU1365, 5-(2-(3-(Benzyloxy)-5-((2-methoxyethyl)amino)phenyl)-1 H-pyrrolo[2,3-b]pyridin-4-yl)-1 H-indazol-3-amine]
Ki [1]: 26 nM
Ki [2]: 1530 nM

Nc1n[nH]c2ccc(-c3ccnc4[nH]c(-c5cccc(S(=O)(=O)N6CCOCC6)c5)cc34)cc12 [5aa SU1311, 5-(2-(3-(Morpholinosulfonyl)phenyl)-1 H-pyrrolo[2,3-b]pyridin-4-yl)-1 H-indazol-3-amine]
Ki [1]: 25 nM
Ki [2]: 149 nM

Nc1n[nH]c2ccc(-c3ccnc4[nH]c(-c5ccnc(OCCc6ccccc6)c5)cc34)cc12 [6l SU1621, 5-(2-(2 -Phenethoxypyridin-4-yl)-1 H-pyrrolo[2,3-b]pyridin-4-yl)-1 H-indazol-3-amine]
Ki [1]: 42 nM
Ki [2]: 1600 nM

Cc1ccc(S(=O)(=O)Nc2ccc(-c3cc4c(-c5ccc6[nH]nc(N)c6c5)ccnc4[nH]3)cc2)cc1 [5u SU1283, N-(4-(4-(3 -Amino-1 H-indazol-5-yl)-1 H-pyrrolo[2,3-b]pyridin-2-yl)phenyl)-4-methylbenzenesulfonamide]
Ki [1]: 4 nM
Ki [2]: 67 nM
selectivity for IKKα over IKKβ, in words [3]: tended to improve IKKβactivity to reduce selectivity

Nc1cccc(-c2cc3c(-c4ccc5[nH]nc(N)c5c4)ccnc3[nH]2)c1 [5c SU1304, 5-(2-(3 -Aminophenyl)-1 H-pyrrolo[2,3-b]pyridin-4-yl)-1 H-indazol-3-amine]
Ki [1]: 5 nM
Ki [2]: 28 nM

Nc1n[nH]c2ccc(-c3ccnc4[nH]c(-c5cncc(OCc6ccccc6)c5)cc34)cc12 [6e SU1337, 5-(2-(5-(Benzyloxy)pyridin-3-yl)-1 H-pyrrolo[2,3-b]pyridin-4-yl)-1 H-indazol-3-amine]
Ki [1]: 21 nM
Ki [2]: 1550 nM

COc1cccc(-c2cc3c(-c4ccc5[nH]nc(N)c5c4)ccnc3[nH]2)c1 [5e SU1332, 5-(2-(3 -Methoxyphenyl)-1 H-pyrrolo[2,3-b]pyridin-4-yl)-1 H-indazol-3-amine]
Ki [1]: 5 nM
Ki [2]: 40 nM

Nc1n[nH]c2ccc(-c3ccnc4[nH]c(-c5ccc(OCc6ccccc6)cc5)cc34)cc12 [5s SU1334]
Ki [1]: 16 nM
Ki [2]: 189 nM
selectivity for IKKα over IKKβ, in words [3]: tended to improve IKKβactivity to reduce selectivity

CS(=O)(=O)Nc1cccc(-c2cc3c(-c4ccc5[nH]nc(N)c5c4)ccnc3[nH]2)c1 [5j SU1288, N-(3-(4-(3 -Amino-1 H-indazol-5-yl)-1 H-pyrrolo[2,3-b]pyridin-2-yl)phenyl)methanesulfonamide]
Ki [1]: 3 nM
Ki [2]: 109 nM

Nc1n[nH]c2ccc(-c3ccnc4[nH]c5c(c34)CCCC5)cc12 [2 SU1266, 5-(6,7,8,9 -Tetrahydro-5 H-pyrido[2,3-b]indol-4-yl)-1 H-indazol-3-amine]
Ki [1]: 2 nM
Ki [2]: 77 nM

Nc1n[nH]c2ccc(-c3ccnc4[nH]c(-c5cc(F)nc(CNc6ccccc6)c5)cc34)cc12 [6f SU1394, 5-(2-(2 -Fluoro-6-((phenylamino)methyl)pyridin-4-yl)-1 H-pyrrolo[2,3-b]pyridin-4-yl)-1 H-indazol-3-amine]
Ki [1]: 33 nM
Ki [2]: 503 nM

Nc1n[nH]c2ccc(-c3ccnc4[nH]c(-c5cc(F)cc(OCc6ccccc6)c5)cc34)cc12 [6a SU1371, 5-(2-(3-(Benzyloxy)-5-fluorophenyl)-1 H-pyrrolo[2,3-b]pyridin-4-yl)-1 H-indazol-3-amine]
Ki [1]: 59 nM
Ki [2]: 5030 nM

Nc1n[nH]c2ccc(-c3ccnc4[nH]c(-c5cccc(OCC6CCOCC6)c5)cc34)cc12 [5x SU1335, 5-(2-(3-((Tetrahydro-2 H-pyran-4-yl)methoxy)phenyl)-1 H-pyrrolo[2,3-b]pyridin-4-yl)-1 H-indazol-3-amine]
Ki [1]: 8 nM
IKKβ inhibition, in words [2]: good IKKβ inhibition
Ki [2]: 122 nM

Nc1n[nH]c2ccc(-c3ccnc4[nH]c(-c5ccc(OCc6ccccc6)nc5)cc34)cc12 [6d SU1350, 5-(2-(6-(Benzyloxy)pyridin-3-yl)-1 H-pyrrolo[2,3-b]pyridin-4-yl)-1 H-indazol-3-amine]
Ki [1]: 12 nM
Ki [2]: 22 nM
selectivity for IKKα over IKKβ, in words [3]: reduced selectivity

COc1cc(F)cc(-c2cc3c(-c4ccc5[nH]nc(N)c5c4)ccnc3[nH]2)c1 [5g SU1373, 5-(2-(3 -Fluoro-5-methoxyphenyl)-1 H-pyrrolo[2,3-b]pyridin-4-yl)-1 H-indazol-3-amine]
Ki [1]: 3 nM
Ki [2]: 32 nM
